{"source": "patent US20220401408A1", "about": "“COMPOSITIONS AND METHODS FOR RESCUING RETINAL AND CHOROIDAL STRUCTURE AND FUNCTION” (AUCKLAND UNISERVICES LIMITED, priority 2019, published 2022)", "key": {"light damaged rats [1]": {"test_system": "light damaged rats", "assay": "Electroretinogram (ERG) in retina light damage model of dry AMD", "format": "in vivo, Sprague Dawley (SD) rats", "conditions": "for mixed a-wave amplitude vs light damaged control group: 1 week post treatment", "method": "(§1) Retina Light Damage Model of Dry Age-Related Macular Degeneration—The intense light damage model was prepared and carried out as described in previous studies. Mat Nor N, Guo C X, Rupenthal ID, Chen Y S, Green C R, Acosta M L. Sustained Connexin43 Mimetic Peptide Release From Loaded Nanoparticles Reduces Retinal and Choroidal Photodamage. Invest Ophthalmol Vis Sci. 2018; 59:3682-93; Guo C X, Mat Nor M N, Danesh-Meyer H V, Vessey K A, Fletcher E L, O'Carroll S J, et al. Connexin43 Mimetic Peptide Improves Retinal Function and Reduces Inflammation in a Light-Damaged Albino Rat Model. Invest Ophthalmol Vis Sci. 2016; 57:3961-73; Guo C X, Tran H, Green C R, Danesh-Meyer H V, Acosta M L. Gap junction proteins in the light-damaged albino rat. Mol Vis. 2014; 20:670-82; Noell W K, Walker V S, Kang B S, Berman S. Retinal damage by light in rats. Invest Ophthalmol. 1966; 5:450-73. The light damage rat model was selected as it allows direct comparison with this and other drugs. Kim Y, Griffin J M, Nor M N M, Zhang J, Freestone P S, Danesh-Meyer H V, et al. Tonabersat Prevents Inflammatory Damage in the Central Nervous System by Blocking Connexin43 Hemichannels. Neurotherapeutics. 2017; 14:1148-65; Mat Nor N, Guo C X, Rupenthal ID, Chen Y S, Green C R, Acosta M L, supra; Guo C X, Mat Nor M N, Danesh-Meyer H V, Vessey K A, Fletcher E L, O'Carroll S J, et al., supra. […] All experimental procedures were approved by the University of Auckland Animal Ethics Committee, approval No. 001462 and comply with the Association for Research in Vision and Ophthalmology (ARVO) statement for the use of animals in eye research. Six to eight-week old albino Sprague Dawley (SD) rats (200-250 g; male or female) were used. Adult SD rats were exposed to continuous bright light for 24 hours, consistently starting at 9:00 am to minimize possible time-of-day variability. Light exposure was to two animals at a time to prevent rats from taking cover using each other as a shield. The LD protocol and intervention was repeated until the number of individuals for each dose group was obtained (n=7 per group). The light luminance was 2700 lux, generated using fluorescent lamps (Philips Master TLD 18W/965; Koninklijke Philips Electronics N.V., China) directly above the animal cages. The lamps were cool and emitted broadband light, from 380 to 760 nm wavelength, with the average intensity at the top of the cage being 120 W/m2. Animals were free to move within the cage with access to food and water ad libidum. Baseline electroretinography (ERG) readings and optical coherence tomography (OCT) images were collected prior to the light damage. After light exposure, animals were returned to normal light-dark cycle conditions (12 hours light, 174 lux and 12 hours darkness, <62 lux) for 24 hours, 1 week or 2 weeks (and for one group 3 months).\n(§2) Tonabersat treatment of light damaged rats—LD rats were randomly assigned to low, middle or high dose of tonabersat (n=7 per group). The mixture of tonabersat in peanut butter was prepared fresh for each experiment. Three oral tonabersat doses were tested (n=7 per group) with follow up to 2 weeks post-injury, and the highest dose group then split with three animals taken for histological analysis, and four animals followed to 3 months post-injury. There was a ten-animal vehicle only control group. The group of rats that were kept for 3 months were maintained in separate cages for drug or vehicle-treated animals, but were kept under the same light conditions. Tonabersat was fed to animals in peanut butter at 0.26 mg/kg (on average 0.08 mg delivered, estimated circulating concentration 10 μM), 0.8 mg/kg (average of 0.24 mg delivered; 30 μM circulating) or 2.4 mg/kg (on average 0.72 mg delivered; 90 μM circulating) following consideration of previous unsuccessful human trial dosing levels. Silberstein S D. Tonabersat, a novel gap-junction modulator for the prevention of migraine. Cephalalgia. […]"}, "light damaged rats [2]": {"test_system": "light damaged rats", "assay": "Optical coherence tomography (OCT) of retinal layers and choroid in light damage model", "format": "in vivo, Sprague Dawley (SD) rats", "method": "as §1, §2"}, "[3]": {"conditions": "2.4 mg/kg oral single dose, 3 months after light damage"}, "[4]": {"conditions": "2.4 mg/kg oral, 3 months post treatment, p<0.001"}, "[5]": {"conditions": "all three oral doses, 24 hours, 1 week and 2 weeks post light damage"}}, "note": "“Also recorded” adds a separate entry of the source.", "data": [{"smiles": "CC(=O)c1ccc2c(c1)[C@H](NC(=O)c1ccc(F)c(Cl)c1)[C@H](O)C(C)(C)O2", "note": "[tonabersat, N-[(3S,4S)-6-acetyl-3-hydroxy-2,2-dimethyl-3,4-dihydrochromen-4-yl]-3-chloro-4-fluorobenzamide]", "values": [{"measurement": "improvement in absolute amplitude of the b-wave (on average)", "setting": "light damaged rats [1]; 0.26 mg/kg oral", "result": 1000, "unit": "µV"}, {"measurement": "mixed a-wave amplitude vs light damaged control group", "setting": "light damaged rats [1]; 0.26 mg/kg oral single dose, p<0.01", "result": "significant improvements"}, {"measurement": "mixed b-wave function", "setting": "light damaged rats [1]; 0.26 mg/kg oral, 24 hours after treatment", "result": "significant improvement"}, {"measurement": "improvement in absolute amplitude of the b-wave (on average)", "setting": "light damaged rats [1]; 0.8 mg/kg oral", "result": 1000, "unit": "µV"}, {"measurement": "mixed a-wave amplitude vs light damaged control group", "setting": "light damaged rats [1]; 0.8 mg/kg oral single dose, p<0.01", "result": "significant improvements"}, {"measurement": "mixed b-wave function", "setting": "light damaged rats [1]; 0.8 mg/kg oral, 24 hours after treatment", "result": "significant improvement"}, {"measurement": "improvement in absolute amplitude of the b-wave (on average)", "setting": "light damaged rats [1]; 2.4 mg/kg oral", "result": 1200, "unit": "µV"}, {"measurement": "mixed b-wave function, significant improvement", "setting": "light damaged rats [1]; 2.4 mg/kg oral (high dose), 24 hours after treatment", "result": "not seen"}, {"measurement": "mixed a-wave amplitude vs light damaged control group", "setting": "light damaged rats [1]; 2.4 mg/kg oral single dose, intensities 0.1-2.1 log cd·s/m2, p<0.001", "result": "significant improvements"}, {"measurement": "a-wave improvement in photoreceptor function compared with vehicle treated controls", "setting": "light damaged rats [1]; [3]", "result": "exceeding 400 V"}, {"measurement": "b-wave amplitude compared with vehicle treated controls", "setting": "light damaged rats [1]; [3]", "result": "exceeded 800 V"}, {"measurement": "PII rod response compared to before light damage", "setting": "light damaged rats [1]; 2.4 mg/kg oral, 3 months", "result": "no change; also recorded: matching the controls"}, {"measurement": "PIII rod response compared to before light damage", "setting": "light damaged rats [1]; 2.4 mg/kg oral, 3 months", "result": "no change; also recorded: only slightly lower"}, {"measurement": "ERG, difference to vehicle control group", "setting": "light damaged rats [1]; 24 hours post-light exposure, any of three oral doses (0.26, 0.8, 2.4 mg/kg)", "result": "no differences"}, {"measurement": "inner retinal function (mixed b-wave amplitude, all stimulus intensities)", "setting": "light damaged rats [1]; all three oral doses, 1 and 2 weeks post-treatment", "result": "overt improvement"}, {"measurement": "improvement in ERG a-wave over vehicle treated light-injured group", "setting": "light damaged rats [1]; all three oral doses, 2 weeks post-treatment, highest intensity, p<0.001", "result": "~500", "unit": "V"}, {"measurement": "mixed a-wave amplitude", "setting": "light damaged rats [1]; all three oral doses, 2 weeks post-treatment, intensities 0.1-2.1 log cd·s/m2, p<0.001", "result": "significant recovery"}, {"measurement": "mixed a-wave and mixed b-wave functions", "setting": "light damaged rats [1]; all tonabersat-treated animals, end of 2-week recovery period", "result": "within the range of variance for normal, undamaged albino rats"}, {"measurement": "ONL thickness compared to same animals prior to light damage", "setting": "light damaged rats [2]; 2.4 mg/kg oral, 3 months", "result": "no difference"}, {"measurement": "choroidal thickness compared to same rats prior to light damage", "setting": "light damaged rats [2]; 2.4 mg/kg oral, 3 months", "result": "no difference"}, {"measurement": "choroidal thickness compared to vehicle treatment group", "setting": "light damaged rats [2]; [4]", "result": "significantly preserved"}, {"measurement": "retinal thickness compared to vehicle treatment group", "setting": "light damaged rats [2]; [4]", "result": "significantly preserved"}, {"measurement": "INL thickness compared to same animals prior to light damage", "setting": "light damaged rats [2]; 2.4 mg/kg oral, 3 months, p<0.05", "result": "slightly reduced thickness"}, {"measurement": "choroidal thickness (OCT)", "setting": "light damaged rats [2]; [5]", "result": "significantly preserved"}, {"measurement": "retinal thickness (OCT)", "setting": "light damaged rats [2]; [5]", "result": "significantly preserved"}, {"measurement": "thinning in the ONL or choroid", "setting": "light damaged rats [2]; lowest and middle dose (0.26, 0.8 mg/kg), up to 2 weeks post light damage", "result": "some thinning at the lowest and middle dose, it was not significant"}]}]}
